Results reported in US8143290B2, “Chemical compounds 572” (AstraZeneca AB, priority 2006, dated 2012).

Molecular target: T1, recombinant human GR (Homo sapiens, UniProt P04150)
T1 construct: purchased Panvera/Invitrogen P2812 (kit P2893)
T1 sequence (P04150 1-777): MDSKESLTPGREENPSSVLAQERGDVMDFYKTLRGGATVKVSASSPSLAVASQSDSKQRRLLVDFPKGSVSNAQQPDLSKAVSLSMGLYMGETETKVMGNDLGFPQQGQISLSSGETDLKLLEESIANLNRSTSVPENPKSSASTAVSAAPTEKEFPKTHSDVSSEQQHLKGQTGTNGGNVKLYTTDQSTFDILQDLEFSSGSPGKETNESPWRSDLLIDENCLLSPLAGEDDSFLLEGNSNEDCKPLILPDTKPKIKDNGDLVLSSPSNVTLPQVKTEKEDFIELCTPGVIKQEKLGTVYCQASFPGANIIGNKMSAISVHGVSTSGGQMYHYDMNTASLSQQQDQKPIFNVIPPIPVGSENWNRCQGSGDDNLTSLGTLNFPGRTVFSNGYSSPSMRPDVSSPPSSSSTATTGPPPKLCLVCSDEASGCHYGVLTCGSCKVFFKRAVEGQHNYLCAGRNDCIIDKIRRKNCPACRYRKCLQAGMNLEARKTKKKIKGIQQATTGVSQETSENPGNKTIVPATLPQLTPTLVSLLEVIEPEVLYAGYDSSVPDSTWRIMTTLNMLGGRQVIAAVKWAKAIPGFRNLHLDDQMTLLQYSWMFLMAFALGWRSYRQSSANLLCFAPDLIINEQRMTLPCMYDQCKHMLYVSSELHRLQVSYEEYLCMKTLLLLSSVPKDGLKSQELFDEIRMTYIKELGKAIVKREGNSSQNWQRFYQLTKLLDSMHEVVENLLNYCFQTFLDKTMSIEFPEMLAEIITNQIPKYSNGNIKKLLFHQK
Test: Human Glucocorticoid Receptor (GR) Assay, fluorescence polarization
Type: binding
Conditions: GS Red tracer, incubated 2 h at r.t., XLfit model 205, read-out: GRhuFL_FP_v2 Mean IC50
How it was run: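 Fluorescence polarization kit assay: recombinant GR and GS Red fluorescent ligand with Stabilizing Peptide and DTT in potassium phosphate/sodium molybdate/EDTA screening buffer. Plates incubated 2 h in the dark at r.t.; DMSO served as 0% and dexamethasone as 100% control.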

SMILES	IC50 [nM]
COc1ccccc1[C@@H](Oc1ccc2c(cnn2-c2ccc(F)cc2)c1)[C@H](C)NC(=O)c1ncc(C)s1 [Example 209, N-[(1R,2S)-1-[1-(4-fluorophenyl)indazol-5-yl]oxy-1-(2-methoxyphenyl)propan-2-yl]-5-methyl-1,3-thiazole-2-carboxamide]	4.1
Cc1cnc(C(=O)N[C@@H](C)[C@H](Oc2ccc3c(cnn3-c3ccc(F)cc3)c2)c2ccc3c(c2)OCO3)s1 [Example 210, N-[(1R,2S)-1-benzo[1,3]dioxol-5-yl-1-[1-(4-fluorophenyl)indazol-5-yl]oxy-propan-2-yl]-5-methyl-1,3-thiazole-2-carboxamide]	5.2
Cc1ccc([C@@H](Oc2ccc3c(cnn3-c3ccc(F)cc3)c2)[C@H](C)NC(=O)C2(C)CC2)cc1C [Example 211, N-[(1R,2S)-1-(3,4-dimethylphenyl)-1-[1-(4-fluorophenyl)indazol-5-yl]oxy-propan-2-yl]-1-methyl-cyclopropane-1-carboxamide]	3
C[C@H](NC(=O)C1(C)CC1)[C@H](Oc1ccc2c(cnn2-c2ccc(F)cc2)c1)c1ccc(F)c(F)c1 [Example 212, N-[(1R,2S)-1-(3,4-difluorophenyl)-1-[1-(4-fluorophenyl)indazol-5-yl]oxy-propan-2-yl]-1-methyl-cyclopropane-1-carboxamide]	5.2
Cc1ccc([C@@H](Oc2ccc3c(cnn3-c3ccc(F)cc3)c2)[C@H](C)NC(=O)C2(C)CC2)cc1F [Example 213, N-[(1R,2S)-1-(3-fluoro-4-methyl-phenyl)-1-[1-(4-fluorophenyl)indazol-5-yl]oxy-propan-2-yl]-1-methyl-cyclopropane-1-carboxamide]	4.4
C[C@H](NC(=O)C1(C)CC1)[C@H](Oc1ccc2c(cnn2-c2ccc(F)cc2)c1)c1cccc(F)c1 [Example 214, N-[(1R,2S)-1-(3-fluorophenyl)-1-[1-(4-fluorophenyl)indazol-5-yl]oxy-propan-2-yl]-1-methyl-cyclopropane-1-carboxamide]	4.5
Cc1ccc(C)c([C@@H](Oc2ccc3c(cnn3-c3ccc(F)cc3)c2)[C@H](C)NC(=O)C2(C)CC2)c1 [Example 215, N-[(1R,2S)-1-(2,5-dimethylphenyl)-1-[1-(4-fluorophenyl)indazol-5-yl]oxy-propan-2-yl]-1-methyl-cyclopropane-1-carboxamide]	4.4
Cc1ccc([C@@H](Oc2ccc3c(cnn3-c3ccc(F)cc3)c2)[C@H](C)NC(=O)C2(C)CC2)c(C)c1 [Example 216, N-[(1R,2S)-1-(2,4-dimethylphenyl)-1-[1-(4-fluorophenyl)indazol-5-yl]oxy-propan-2-yl]-1-methyl-cyclopropane-1-carboxamide]	4.7
COc1ccc([C@@H](Oc2ccc3c(cnn3-c3ccc(F)cc3)c2)[C@H](C)NC(=O)C2(C)CC2)cc1F [Example 217, N-[(1R,2S)-1-(3-fluoro-4-methoxy-phenyl)-1-[1-(4-fluorophenyl)indazol-5-yl]oxy-propan-2-yl]-1-methyl-cyclopropane-1 carboxamide]	3.9
C[C@H](NC(=O)C1(C)CC1)[C@H](Oc1ccc2c(cnn2-c2ccc(F)cc2)c1)c1cccc(Cl)c1 [Example 218, N-[(1R,2S)-1-(3-chlorophenyl)-1-[1-(4-fluorophenyl)indazol-5-yl]oxy-propan-2-yl]-1-methyl-cyclopropane-1-carboxamide]	3.3
Cc1cc(F)ccc1[C@@H](Oc1ccc2c(cnn2-c2ccc(F)cc2)c1)[C@H](C)NC(=O)C1(C)CC1 [Example 219, N-[(1R,2S)-1-(4-fluoro-2-methyl-phenyl)-1-[1-(4-fluorophenyl)indazol-5-yl]oxy-propan-2-yl]-1-methyl-cyclopropane-1-carboxamide]	2.8
Cc1ccc(F)cc1[C@@H](Oc1ccc2c(cnn2-c2ccc(F)cc2)c1)[C@H](C)NC(=O)C1(C)CC1 [Example 220, N-[(1R,2S)-1-(5-fluoro-2-methyl-phenyl)-1-[1-(4-fluorophenyl)indazol-5-yl]oxy-propan-2-yl]-1-methyl-cyclopropane-1-carboxamide]	4.2
COc1c(C)cc([C@@H](Oc2ccc3c(cnn3-c3ccc(F)cc3)c2)[C@H](C)NC(=O)C2(C)CC2)cc1C [Example 221, N-[(1R,2S)-1-[1-(4-fluorophenyl)indazol-5-yl]oxy-1-(4-methoxy-3,5-dimethyl-phenyl)propan-2-yl]-1-methyl-cyclopropane-1-carboxamide]	4.4
C[C@H](NC(=O)C1(C)CC1)[C@H](Oc1ccc2c(cnn2-c2ccc(F)cc2)c1)c1ccc(Cl)cc1 [Example 222, N-[(1R,2S)-1-(4-chlorophenyl)-1-[1-(4-fluorophenyl)indazol-5-yl]oxy-propan-2-yl]-1-methyl-cyclopropane-1-carboxamide]	3.5
C[C@H](NC(=O)C1(C)CC1)[C@H](Oc1ccc2c(cnn2-c2ccc(F)cc2)c1)c1cc(F)cc(Cl)c1 [Example 223, N-[(1R,2S)-1-(3-chloro-5-fluoro-phenyl)-1-[1-(4-fluorophenyl)indazol-5-yl]oxy-propan-2-yl]-1-methyl-cyclopropane-1-carboxamide]	3.9
Cc1cc(C)c([C@@H](Oc2ccc3c(cnn3-c3ccc(F)cc3)c2)[C@H](C)NC(=O)C2(C)CC2)cc1C [Example 224, N-[(1R,2S)-1-[1-(4-fluorophenyl)indazol-5-yl]oxy-1-(2,4,5-trimethylphenyl)propan-2-yl]-1-methyl-cyclopropane-1-carboxamide]	5.7
Cc1cccc([C@@H](Oc2ccc3c(cnn3-c3ccc(F)cc3)c2)[C@H](C)NC(=O)C2(C)CC2)c1 [Example 225, N-[(1R,2S)-1-[1-(4-fluorophenyl)indazol-5-yl]oxy-1-(3-methylphenyl)propan-2-yl]-1-methyl-cyclopropane-1-carboxamide]	4.8
C[C@H](NC(=O)C1(C)CC1)[C@H](Oc1ccc2c(cnn2-c2ccc(F)cc2)c1)c1ccc(C(C)(C)C)cc1 [Example 226, N-[(1R,2S)-1-[1-(4-fluorophenyl)indazol-5-yl]oxy-1-(4-tert-butylphenyl)propan-2-yl]-1-methyl-cyclopropane-1 carboxamide]	7.2
COc1ccccc1[C@@H](Oc1ccc2c(cnn2-c2ccc(F)cc2)c1)[C@H](C)NC(=O)C1(C)CC1 [Example 227, N-[(1R,2S)-1-[1-(4-fluorophenyl)indazol-5-yl]oxy-1-(2-methoxyphenyl)propan-2-yl]-1-methyl-cyclopropane-1-carboxamide]	3.1
C[C@H](NC(=O)C(C)(F)F)[C@H](Oc1ccc2c(cnn2-c2ccc(F)cc2)c1)c1ccc(F)c(F)c1 [Example 228, N-[(1R,2S)-1-(3,4-difluorophenyl)-1-[1-(4-fluorophenyl)indazol-5-yl]oxy-propan-2-yl]-2,2-difluoro-propanamide]	8
Cc1ccc([C@@H](Oc2ccc3c(cnn3-c3ccc(F)cc3)c2)[C@H](C)NC(=O)C(C)(F)F)cc1F [Example 229, 2,2-difluoro-N-[(1R,2S)-1-(3-fluoro-4-methyl-phenyl)-1-[1-(4-fluorophenyl)indazol-5-yl]oxy-propan-2-yl]propanamide]	5.5
C[C@H](NC(=O)C(C)(F)F)[C@H](Oc1ccc2c(cnn2-c2ccc(F)cc2)c1)c1cccc(F)c1 [Example 230, 2,2-difluoro-N-[(1R,2S)-1-(3-fluorophenyl)-1-[1-(4-fluorophenyl)indazol-5-yl]oxy-propan-2-yl]propanamide]	4.8
COc1ccc([C@@H](Oc2ccc3c(cnn3-c3ccc(F)cc3)c2)[C@H](C)NC(=O)C(C)(F)F)cc1F [Example 231, 2,2-difluoro-N-[(1R,2S)-1-(3-fluoro-4-methoxy-phenyl)-1-[1-(4-fluorophenyl)indazol-5-yl]oxy-propan-2-yl]propanamide]	5.1
C[C@H](NC(=O)C(C)(F)F)[C@H](Oc1ccc2c(cnn2-c2ccc(F)cc2)c1)c1cccc(Cl)c1 [Example 232, N-[(1R,2S)-1-(3-chlorophenyl)-1-[1-(4-fluorophenyl)indazol-5-yl]oxy-propan-2-yl]-2,2-difluoro-propanamide]	5.4
Cc1cc(F)ccc1[C@@H](Oc1ccc2c(cnn2-c2ccc(F)cc2)c1)[C@H](C)NC(=O)C(C)(F)F [Example 233, 2,2-difluoro-N-[(1R,2S)-1-(4-fluoro-2-methyl-phenyl)-1-[1-(4-fluorophenyl)indazol-5-yl]oxy-propan-2-yl]propanamide]	6.1
Cc1ccc(F)cc1[C@@H](Oc1ccc2c(cnn2-c2ccc(F)cc2)c1)[C@H](C)NC(=O)C(C)(F)F [Example 234, 2,2-difluoro-N-[(1R,2S)-1-(5-fluoro-2-methyl-phenyl)-1-[1-(4-fluorophenyl)indazol-5-yl]oxy-propan-2-yl]propanamide]	6.4
